This passage reports GI50 and TGI results from PubChem BioAssay (NCI).

Where “and” joins values, the source holds several entries; their conditions need not be identical. Equal values may be shown once.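 Compound exposure: 48 hours, 5 concentrations, 96-well plates. At the GI50, growth is halved. TGI: concentration producing complete growth inhibition.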

Among the test systems are OVCAR-4 ovarian; COLO 205 colon; HCC-2998 colon; SF-268 CNS; ACHN renal; SNB-19 CNS; M14 melanoma; K-562 leukemia; NCI-H460 lung; SF-539 CNS.
Assay in all cases: NCI-60 cell line screen, 48 h

On to `CCCCCCCCC/C(=N\NC(=O)c1ccncc1)c1ccc(O)c(O)c1O`, for which the GI50 was 0.12 µM in the test on OVCAR-4 ovarian; 0.617 µM in the test on COLO 205 colon; 0.199 µM with HCC-2998 colon; 0.142 µM in the test on SF-268 CNS; 0.0734 µM with ACHN renal; 0.272 µM in the test on SNB-19 CNS. Also, the GI50 was 0.175 µM in the test on M14 melanoma, 0.498 µM in the test on K-562 leukemia, 0.0705 µM in the test on NCI-H460 lung and 0.294 µM with SF-539 CNS. Also, the TGI in the test on OVCAR-4 ovarian is 18 µM; with COLO 205 colon, 17.4 µM; in the test on HCC-2998 colon, over 36.6 µM; in the test on SF-268 CNS, over 23.4 µM; in the test with ACHN renal, over 100 µM; in the test on SNB-19 CNS it was over 100 µM. Moreover, the TGI in the test on M14 melanoma was 1.14 µM; in the test with K-562 leukemia, over 100 µM; in the test on NCI-H460 lung it was 1.1 µM; with SF-539 CNS it was 8.71 µM.

Regarding `C=C1C(=O)O[C@H]2C[C@@H]1CC/C(C)=C/CC/C(C)=C/CC[C@@]2(C)O`, the GI50 in the test on OVCAR-4 ovarian is over 100 µM; in the test on COLO 205 colon it was 44.2 µM; in the test on HCC-2998 colon, 24.1 µM; in the test with SF-268 CNS, over 100 µM; in the test with ACHN renal it was 55.3 µM; with SNB-19 CNS, over 100 µM. Also, the GI50 with M14 melanoma is 44.4 µM; with K-562 leukemia, 20 µM; with NCI-H460 lung, over 100 µM; with SF-539 CNS, 24.9 µM. The TGI is over 100 µM in the test on OVCAR-4 ovarian; over 100 µM in the test on COLO 205 colon; 74.9 µM with HCC-2998 colon; over 100 µM in the test on SF-268 CNS; over 100 µM in the test on ACHN renal; over 100 µM in the test on SNB-19 CNS. The TGI in the test on M14 melanoma was over 100 µM; with K-562 leukemia it was 50.2 µM; with NCI-H460 lung it was over 100 µM; in the test on SF-539 CNS, 59.3 µM.

Consider `O=C1NC2C(=CC(O)C(O)C2O)c2cc3c(cc21)OCO3` (stereo not given), for which the GI50 in the test with OVCAR-4 ovarian is 0.159 µM and 0.422 µM; in the test on COLO 205 colon, 0.074 µM; in the test with HCC-2998 colon, 0.179 µM; with SF-268 CNS, 0.354 µM and 0.337 µM; in the test on ACHN renal, 0.334 µM; with SNB-19 CNS, 0.296 µM and 0.111 µM. Besides, the GI50 was 0.424 µM in the test on M14 melanoma; 0.294 µM and 0.149 µM in the test on K-562 leukemia; 0.251 µM and 0.147 µM with NCI-H460 lung; 0.237 µM in the test with SF-539 CNS. Further, the TGI in the test with COLO 205 colon is 0.595 µM and 0.249 µM and 0.579 µM; with HCC-2998 colon it was 1.38 µM and 1.67 µM; with SF-268 CNS it was 3.37 µM and 3.58 µM; in the test on ACHN renal it was 1.57 µM; with SNB-19 CNS it was 0.832 µM and 2.12 µM; with M14 melanoma, 1.41 µM. The TGI with K-562 leukemia was 3.64 µM and 7.68 µM; with NCI-H460 lung it was 2.01 µM and 1.3 µM; with SF-539 CNS it was 1.41 µM and 1.85 µM.

Consider `CC(C)(C)[Si](C)(C)OC1[C@@H](O[Si](C)(C)C(C)(C)C)[C@@H](CNC(=O)NC(=O)CF)O[C@H]1n1cnc2c(NC(=O)Nc3ccccc3)ncnc21` (stereo not given in full), for which the GI50 in the test with OVCAR-4 ovarian is 6.18 µM; in the test with COLO 205 colon it was 7.66 µM; in the test with HCC-2998 colon, 9.23 µM; in the test with SF-268 CNS it was 12.6 µM; in the test on ACHN renal, 8.67 µM; in the test on M14 melanoma it was 15.9 µM. The GI50 in the test on K-562 leukemia was 14.7 µM; in the test on NCI-H460 lung, 8.32 µM; in the test with SF-539 CNS, 14.5 µM. The TGI in the test with OVCAR-4 ovarian is over 50 µM; with COLO 205 colon it was 18.4 µM; with HCC-2998 colon, 31.3 µM; with SF-268 CNS it was over 50 µM; with ACHN renal it was 38.6 µM; in the test with M14 melanoma, over 50 µM. For the same compound, the TGI with K-562 leukemia, in the test with NCI-H460 lung and with SF-539 CNS was over 50 µM in each case.

As for `N#C[Se]CCN1C(=O)C2C(C1=O)[C@H]1C=C[C@@H]2S1` (stereo not given in full), the GI50 was 1.85 µM in the test on OVCAR-4 ovarian; 2.45 µM with COLO 205 colon; 2.18 µM in the test with HCC-2998 colon; 1.95 µM in the test with SF-268 CNS; 2.07 µM in the test with ACHN renal; 1.54 µM in the test on M14 melanoma. Further, the figures for the GI50 in the test with K-562 leukemia, in the test on NCI-H460 lung and with SF-539 CNS were 3.24 µM, 1.93 µM and 1.69 µM, respectively. Besides, the TGI in the test on OVCAR-4 ovarian is 6.1 µM; with COLO 205 colon, 6.42 µM; with HCC-2998 colon, 5.44 µM; with SF-268 CNS, 3.86 µM; with ACHN renal, 3.99 µM; with M14 melanoma, 3.62 µM. Further, the TGI in the test on K-562 leukemia is 12 µM; in the test with NCI-H460 lung, 6.77 µM; with SF-539 CNS, 3.18 µM.

On to `CC[C@@H](C(=O)[C@H](C)[C@H](O)[C@@H](C)[C@H]1O[C@H]([C@@H](CC)C(=O)N(CC)CC)CC[C@H]1C)C1O[C@]2(C=C[C@@H](O)[C@]3(CC[C@@](C)([C@H]4CC[C@](O)(CC)[C@H](C)O4)O3)O2)[C@H](C)C[C@@H]1C` (stereo not given in full), for which the GI50 with OVCAR-4 ovarian was 3.04 µM; in the test on COLO 205 colon it was 2.5 µM; in the test on HCC-2998 colon it was 2.97 µM; in the test with SF-268 CNS, 3.6 µM; in the test with ACHN renal, 2.93 µM; with SNB-19 CNS it was 3.24 µM. For the same compound, the values for the GI50 with K-562 leukemia, in the test on NCI-H460 lung and in the test with SF-539 CNS were 3.12 µM, 2.61 µM and 3.01 µM, respectively. Besides, the TGI turned out to be 11.3 µM in the test with OVCAR-4 ovarian; 5.82 µM in the test with COLO 205 colon; 10.7 µM with HCC-2998 colon; 19.3 µM in the test with SF-268 CNS; 10 µM in the test on ACHN renal; 16.8 µM with SNB-19 CNS. Moreover, the results for the TGI in the test on K-562 leukemia, in the test on NCI-H460 lung and in the test on SF-539 CNS were 19.4 µM, 7.3 µM and 10.5 µM, respectively.

As for `COc1cc(O)c2c(c1)O[C@@H]1OCC[C@H]21`, the TGI with OVCAR-4 ovarian, in the test with COLO 205 colon, in the test with HCC-2998 colon, in the test on ACHN renal, in the test on SNB-19 CNS and in the test with M14 melanoma was over 100 µM each time. Further, the TGI in the test on K-562 leukemia, with NCI-H460 lung and in the test on SF-539 CNS was over 100 µM in each case.

In the case of `C(=N\Nc1ccccc1)/c1nc2ccccc2nc1/C=N/Nc1ccccc1`, the TGI worked out at 48.4 µM with OVCAR-4 ovarian; 25.3 µM with HCC-2998 colon; 29.3 µM with SF-268 CNS; 30.6 µM in the test with ACHN renal; 35.4 µM in the test on SNB-19 CNS; 30 µM with M14 melanoma. For the same compound, the TGI came to 20.5 µM in the test on K-562 leukemia, 29 µM with NCI-H460 lung and 30.8 µM in the test on SF-539 CNS.

Consider `CCOC(=O)Cc1csc(Nc2ccc(OCC)cc2)n1`, for which the TGI in the test with OVCAR-4 ovarian, with COLO 205 colon, with HCC-2998 colon, in the test with SF-268 CNS, in the test on ACHN renal and in the test on SNB-19 CNS was over 100 µM in each case. Moreover, the TGI with K-562 leukemia, in the test on NCI-H460 lung and with SF-539 CNS was over 100 µM throughout.
